The text below walks through data of paper PMC9110316 (Computational and Structural Biotechnology Journal, 2022).

Assay [1] has as its system SARS-CoV-2 B.1.351 (Beta) variant pseudovirus. In words: organism not typed. The format is cell-based. Conditions: A549, read-out: EC50, inhibition of SARS-CoV-2 B.1.351 (Beta) variant pseudovirus infection.
Assay [2] has the same test system. Briefly: organism not typed. Format: cell-based. Conditions: Huh-7, read-out: EC50, inhibition of SARS-CoV-2 B.1.351 (Beta) variant pseudovirus infection.

Structures are written as SMILES. Read-outs that look alike come from different tables or passages of the source. Where a SMILES comes first, the peptide text is derived from it. [ ]: non-standard residue; d: D form. The star is where a group is joined. Nle = CCCC[CH](N)C(=O)O; Cbz = O=C(OCc1ccccc1)*

Broadly, the EC50 is the concentration giving half of the maximal effect. With `CC(NC(=O)C(Cc1ccccc1)NC(=O)OCc1ccccc1)C(=O)CF` (stereo not shown) [Z-FA-FMK], the figures for the EC50 in assay [1] and in assay [2] were 5.31 µM and 10 µM, respectively.
Consider `CCCCC(C=O)NC(=O)C(CC(C)C)NC(=O)C(CC(C)C)NC(C)=O` (stereo not drawn) [Mg-101] (Ac-Leu-Leu-[Nle]-aldehyde; configuration not given here), for which the EC50 in assay [1] worked out at 1.89 µM; in assay [2], 0.86 µM.
On the same counts, the results for `CC(=O)N[C@@H](CC(C)C)C(=O)N[C@@H](CC(C)C)C(=O)N[C@H](C=O)CCCNC(=N)N` [leupeptin hemisulfate] are 7.71 µM and 17.1 µM.
For the compound `CCCC[C@@H](C=O)NC(=O)[C@H](CC(C)C)NC(=O)OCc1ccccc1` [calpeptin], the EC50 in assay [1] worked out at 36.4 µM; in assay [2] it was 23.9 µM.
In the case of `CC(C)C[C@@H](C=O)NC(=O)[C@H](CC(C)C)NC(=O)[C@H](CC(C)C)NC(=O)OCc1ccccc1` [Mg-132] (Cbz-Leu-Leu-Leu-aldehyde), the EC50 in assay [1] came out at 0.908 µM; in assay [2], 0.901 µM.
